Key:
hESC [1] = experiment: Xeno-free, feeder-free hESC culture (minimal medium development); assay type: cell-based, human; settings: for maintenance of hESCs, Wnt ligand replaced by GSK-3 inhibitor: ID-8 containing medium
Experimental: (§1) For xeno-free, feeder-free culture, the cells were passaged into 2 μg/cm^2 human Fibronectin (Sigma), 10-20 μg/cm^2 human Laminin (Sigma) and 10 μg/cm^2 human Vitronectin (Invitrogen)-coated culture dishes and cultured in DMEM/F-12 supplement with L-glutamine, a non-essential amino acid, ITS, 20-25 ng/ml Wnt3a and 500 nM ID-8, and with or without 4 ng/ml FGF2. The culture medium was changed daily. Some of colonies became detached from the edge region 5 to 7 days after culturing, and then cells were treated with 0.5 mg/ml GRGDTP peptides (AnaSpec) or 1 μg/ml Echistatin (Sigma) and incubated at 37° C. for 15-45 minutes until almost all of the colony starts to detach from the edge region. The colonies were detached and partially dissociated into clumps by gentle pipetting, and then the clumps were washed with culture medium, collected by centrifugation and seeded on new dishes as 1 to 2 split ratio.
The development of a xeno-free, feeder-free hESC culture system using ID-8 and Wnt activation was investigated. After extensive investigation, the inventors determined that the minimal media required to maintain hESC proliferation and pluripotency consisted of DMEM/F-12 with bFGF (4 ng/ml), Wnt3a (25 ng/ml), ID-8 (0.5 μM) and Insulin-Transferrin-Selenium (ITS). […] The inventors next sought to replace the Wnt ligand with several small molecule GSK-3 inhibitors, BIO (11), CHIR99021 (22) and Kenpaullone (23) in ID-8 containing medium with or without bFGF. […] However, in contrast to Wnt ligand containing medium, hESCs became unstable after few passages, subsequently stabilized and maintained pluripotent cores were surrounded with spontaneously differentiated cells (FIG. 5). Under these conditions, manually selection of undifferentiated hESC colonies from the surrounding cells was required at every passage to maintain pluripotent cultures.
(§2) Initially, cells were maintained on Matrigel, a complex animal derived ECM. However, it would be advantageous to use a defined xeno-component-free ECM. […] Because of the extremely low level of protein in these cultures (i.e. no albumin and matrigel), the hESCs are extremely sensitive to damage caused by the dissociation enzymes normally used for passaging. […] To develop a compatible passaging process, the inventors investigated several integrin antagonists.

HES2 cells = experiment: Clonal proliferation assay, HES2 cells in MEF-CM; assay type: cell-based, human; settings: for effect on hESC survival, self-renewal and differentiation: supplement in MEF-CM, colony morphology
Experimental: The clonal proliferation assay was described previously. Briefly, the hES cells in feeder-free culture were dissociated completely with 0.05% trypsin-EDTA.(Invitrogen), and are seeded at 10^4 cells/well in Matrigel-coated 6-well culture plates and cultured in MEF-conditioned medium. Various concentration of Wnt3a (purified in our laboratory or purchased from Peprotech), IQ-1, ID-8 and/or ICG-001 (all three chemicals were synthesized in our laboratory), were supplemented into the culture media at the onset of seeding, then continuously until the end of culturing. For all assays, the cell and colony morphology were examined under microscope, and the replating efficiency was examined by counting the number of colonies after 7 days of culture.
For quantitative PCR analysis, total RNA was isolated from hESCs cultured in feeder-free condition with or without Wnt3a and Id-8 using RNeasy micro kit (Qiagen). RT was performed with Omniscript (Qiagen) and quantitative RT-PCR was then performed, using each gene-specific primer/probe mix (TaqMan Gene Expression Assays), TaqMan 2× Master Mix, and ABI PRISM 7900 Sequence Detection system (Applied Biosystems, CA) according manufacture's protocol. The PCR data was analyzed by delta/delta OT method and normalized with PPIA expression.
The hESC colonies were fixed with 4% paraformaldehyde, and alkaline phosphatase (ALP) activity was determined with a Vector Blue Alkaline Phosphatase Substrate Kit (Vector Laboratories, CA). Immunostaining was carried out with the following primary antibodies: TRA-1-60 and TRA-1-80 (Santa Cruz Biotechnology, CA), anti-stage specific embryonic antigen (SSEA)-3 and -4 (Developmental Studies Hybridoma Bank at the University of Iowa), anti-OCT-3 (clone C-10, Santa Cruz Biotechnology, CA), or goat anti-Nanog (R&D systems, MN). Then, samples were incubated with Alexa Fluor 488- or 594-conjugated (Molecular Probes, NY), then detected with indirect immunofluorscence microscopy.
The effects of canonical Wnt ligand, Wnt3a and several small molecule Wnt signaling modulators in a clonal proliferation assay were investigated first (9) (FIG. 3A). When HES2 cells (2) were dissociated into single cells and seeded on Matrigel-coated plates in mouse embryonic fibroblast-conditioned medium (MEF-CM)(20), the colony forming efficiency was ˜0.6% (replating efficiency: colony number/seeded cell number). Supplementation with Wnt3a enhanced colony formation (˜1% at 100 ng/ml). The colonies were larger and consisted of more cells. […] ID-8, which was identified in the same screen as IQ-1 (21), also enhances the β-catenin/CBP association and increased hESC survival (˜1.1% at 0.5 μM). […] To examine the scope of this effect in hESC, clonal proliferation assays were performed with the additional hESC lines, HES3 (2) and H9 (1) (FIG. 3H).

DYRK2 = molecular target: T1, DYRK2 (Homo sapiens, UniProt Q92630); experiment: ID-8 affinity chromatography / pull-down with biotinylated ID-8, competition by free ID-8; assay type: binding; settings: cell lysates; competition with free ID-8
T1 construct: endogenous in cells
T1 sequence (Q92630 1-601): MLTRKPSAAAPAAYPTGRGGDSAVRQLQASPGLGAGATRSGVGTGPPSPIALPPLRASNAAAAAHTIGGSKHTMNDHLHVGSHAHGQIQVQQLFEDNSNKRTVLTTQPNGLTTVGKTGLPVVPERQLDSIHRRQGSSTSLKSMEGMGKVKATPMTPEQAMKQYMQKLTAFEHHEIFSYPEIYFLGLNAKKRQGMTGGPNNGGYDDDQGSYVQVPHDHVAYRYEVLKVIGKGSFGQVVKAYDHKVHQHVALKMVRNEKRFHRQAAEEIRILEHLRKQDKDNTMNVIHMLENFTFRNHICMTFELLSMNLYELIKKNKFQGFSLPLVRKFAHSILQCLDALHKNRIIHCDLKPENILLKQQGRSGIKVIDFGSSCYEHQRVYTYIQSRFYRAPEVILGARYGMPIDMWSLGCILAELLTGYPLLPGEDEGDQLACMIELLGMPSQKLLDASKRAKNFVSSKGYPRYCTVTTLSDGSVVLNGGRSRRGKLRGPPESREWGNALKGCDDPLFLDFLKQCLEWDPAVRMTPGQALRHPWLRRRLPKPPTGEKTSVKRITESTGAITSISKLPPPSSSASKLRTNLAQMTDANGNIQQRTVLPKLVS
Experimental: (§3) The cells were washed twice with 5 mL of ice-old PBS and scraped using 1 mL of PBS containing protease inhibitor cocktail (Calbiochem 539137). The cells were collected by centrifugation and the cell pellet was frozen and stocked with liquid nitrogen. Total 2 g of cell pellet was thawed on ice and then suspended in 20 mL of chilled M-Per (Pierce 78501) buffer containing 1 mM DTT and the protease inhibitor cocktail. The cell suspension was mixed and lysed on a nutator (BD Diagnostics) for 30 minutes at 4° C. The lysate was then centrifuged at 10,000 rpm for 30 minutes at 4° C., and the supernatant was divided into two equal aliquots in 50 mL centrifuge tubes. […]
(§4) After pre-treatment with free competitor ID-8 or DMSO control, the streptayidin-sepharose bound with biotinylated ID-8 was applied on the lysates. […] The specific bands lost by competitor free ID-8 was analyzed by LC/MS (LTQ-XL, Thermo Scientific).
(§5) The elution was also analyzed by or western blotting with specific antibodies against DYRK1a (Cell Signaling 2771), DYRK2 (Abeam ab37912), DYRK3 (Santa Cruz sc-66868), DYRK4 (Abeam ab37911), or HIP2K (Santa Cruz sc-100383).
(§6) ID-8 (FIG. 4A) can enhance β-catenin/CBP-mediated transcription, however, its direct molecular target(s) remained unidentified. […] To confirm this, the inventors designed miRNA to target the DYRK family and evaluated them after transfection by immunoblotting (FIG. 4D-E). […]

DYRK4 = molecular target: T2, DYRK4 (Homo sapiens, UniProt Q9NR20); experiment: ID-8 pull-down, western blotting with DYRK family antibodies; assay type: binding; settings: western blotting of precipitated proteins
T2 construct: endogenous in cells
T2 sequence (Q9NR20 1-520): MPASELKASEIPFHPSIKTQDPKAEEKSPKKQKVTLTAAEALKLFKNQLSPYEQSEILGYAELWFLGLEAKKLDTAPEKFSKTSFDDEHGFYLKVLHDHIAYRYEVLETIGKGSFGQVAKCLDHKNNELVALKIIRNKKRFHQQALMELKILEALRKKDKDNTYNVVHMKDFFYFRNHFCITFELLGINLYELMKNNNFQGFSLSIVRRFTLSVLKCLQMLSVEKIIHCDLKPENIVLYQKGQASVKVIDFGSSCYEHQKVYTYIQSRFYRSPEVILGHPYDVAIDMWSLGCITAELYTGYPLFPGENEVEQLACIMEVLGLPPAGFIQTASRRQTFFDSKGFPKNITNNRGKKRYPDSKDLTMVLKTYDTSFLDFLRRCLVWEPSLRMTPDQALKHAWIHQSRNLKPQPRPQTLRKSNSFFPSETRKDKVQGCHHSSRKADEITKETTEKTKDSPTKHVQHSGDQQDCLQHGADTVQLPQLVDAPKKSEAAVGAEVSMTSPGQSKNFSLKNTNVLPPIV
Experimental: as §3, §4, §5, §6

hESC [2] = experiment: Passaging by integrin antagonists (colony detachment); assay type: cell-based, human; settings: xeno-free medium, FLV-coated dishes
Experimental: as §1, §2

Cc1c[nH]c(-c2cnc(NCCNc3ccc(C#N)cn3)nc2-c2ccc(Cl)cc2Cl)n1 [CHIR90021]
maintenance of hESCs, Wnt ligand replaced by GSK-3 inhibitor (hESC [1]; 0.2 μM plus bFGF): could maintain hESCs

O=C1[C@H](Cc2ccc(O)cc2)N2C(=O)CCN(C(=O)NCc3ccccc3)[C@H]2CN1Cc1cccc2ccccc12 [ICG-001]
effect on hESC survival, self-renewal and differentiation (HES2 cells): strongly induced cell differentiation and death

COc1ccc(-n2c(C)c([N+](=O)[O-])c3ccc(O)cc32)cc1 [ID-8]
replating efficiency (colony number/seeded cell number), hESC survival (HES2 cells; ID-8 at 0.5 μM, single cells on Matrigel in MEF-CM, control ~0.6%): ~1.1% | binding of DYRK2 to ID-8 affinity column (DYRK2): competed away by free ID-8 | DYRK4 in proteins precipitated with biotinylated ID-8 (DYRK4): identified not only DYRK2 but also DYRK4 | maintenance of hESC colonies (hESC [1]; minimal medium (DMEM/F-12, bFGF, Wnt3a, ITS) without ID-8): no colonies were maintained

CC(=O)c1ccc(NN=C(C(N)=O)C2=NC(C)(C)Cc3ccccc32)cc1 [IQ-1]
effect on Wnt-induced differentiation (HES2 cells; in presence of Wnt3a, MEF-CM): somewhat prevented Wnt-induced differentiation | effect on hESC survival, self-renewal and differentiation (HES2 cells): did not significantly affect hESC self-renewal by itself

O=C1Cc2c([nH]c3ccc(Br)cc23)-c2ccccc2N1 [Kenpaullone]
maintenance of hESCs, Wnt ligand replaced by GSK-3 inhibitor (hESC [1]; 0.5 μM plus bFGF): could maintain hESCs | maintenance of hESCs, Wnt ligand replaced by GSK-3 inhibitor (hESC [1]; 1.0 μM plus bFGF): could maintain hESCs | maintenance of hESCs, Wnt ligand replaced by GSK-3 inhibitor (hESC [1]; 1.0 μM without bFGF): could maintain hESCs

Echistatin
colony detachment and passage of hESC (hESC [2]): effectively caused colony detachment

bFGF: basic fibroblast growth factor, recombinant FGF2 (Peprotech)
hESC morphology and proliferation (hESC [1]; bFGF removed from minimal medium): proliferation was significantly diminished

B1: Wnt3a: canonical Wnt ligand protein, purified in the laboratory or purchased from Peprotech (protein, UniProt P56704 19-352, looked up)
Protein Wnt-3a: SYPIWWSLAVGPQYSSLGSQPILCASIPGLVPKQLRFCRNYVEIMPSVAEGIKIGIQECQHQFRGRRWNCTTVHDSLAIFGPVLDKATRESAFVHAIASAGVAFAVTRSCAEGTAAICGCSSRHQGSPGKGWKWGGCSEDIEFGGMVSREFADARENRPDARSAMNRHNNEAGRQAIASHMHLKCKCHGLSGSCEVKTCWWSQPDFRAIGDFLKDKYDSASEMVVEKHRESRGWVETLRPRYTYFKVPTERDLVYYEASPNFCEPNPETGSFGTRDRTCNVSSHGIDGCDLLCCGRGHNARAERRREKCRCVFHWCCYVSCQECTRVYDVHTCK
replating efficiency (colony number/seeded cell number) (HES2 cells; Wnt3a at 100 ng/ml, single cells on Matrigel in MEF-CM, control ~0.6%): ~1% | effect on hESC survival, self-renewal and differentiation (HES2 cells): enhances hESC survival and proliferation but also induces differentiation

Reference: patent US20110039333A1, “DEFINED CONDITIONS FOR HUMAN EMBRYONIC STEM CELL CULTURE AND PASSAGE” (UNIVERSITY OF SOUTHERN CALIFORNIA, priority 2009, published 2011)
